Measurements taken from US20210236465A1, “METHODS AND COMPOSITIONS FOR TREATING HETEROTOPIC OSSIFICATION” (President and Fellows of Harvard College, priority 2019, published 2021).

Experiments:
Gnas^-/- SMP cells = assay: Osteoblast differentiation (ALP) of Gnas^-/- SMP cells in osteogenic medium; assay type: cell-based, mouse
Procedure: (§1) For ALP staining, cells were fixed in 4% PFA for 20 minutes, washed with PBS for three times, then stained with 1-Step NBT/BCIP (Thermo, 34042) for 30 minutes and washed by PBS. There were three biological replicates for each group. ALP staining was quantified as previously described. Cells were scraped into a radioimmunoprecipitation assay (RIPA) buffer (containing 50 mM Tris-HCl pH 7.5, 150 mM NaCl, 5% Glycerol, 1 mM EDTA, 1% NP-40, 0.1% SDS and 0.25% Na-deoxycholate) and centrifuged. The enzymatic alkaline phosphatase activity in the supernatant of cell lysate was assayed by measuring the chromogenic p-nitrophenol formed from the enzymatic hydrolysis of p-nitrophenyl phosphate (the substrate) by light absorbance at 405 nm. The alkaline phosphatase activity was normalized to total protein, as measured by BCA protein assay. All experiments were performed in triplicates and means and standard deviations were calculated.
Subcutaneous mesenchymal progenitor (SMP) cells are potential osteoprogenitor cells within the subcutaneous connective tissue which can be induced to become osteoblast cells and adipocytes. Subcutaneous skin tissue containing adipose deposits was removed under sterile conditions and washed in PBS supplemented with 100 U/mL penicillin and 100 μg/mL streptomycin on ice. The tissue was then minced, and digested with 1 mg/ml collagenase type I and 0.5% Trypsin in 0.1% BSA for 70 minutes at 37° C. The digested tissue was centrifuged at 500 g for 10 min and the pellet was carefully collected after aspirating off the floating fat depots. After a second centrifugation at 500 g for 10 min, the cellular pellet was filtered through a 100 μm mesh filter to remove debris.
(§2) Cre recombinase adenovirus from Berk (˜10^12 pfu/ml) were diluted 1:50 in 100 μl PBS solution and injected into the subcutaneous region of the limbs of 4 weeks old mice. Six weeks, 3 months or 8 months after injection, the limbs were harvested from euthanized mice and fixed in 4% PFA overnight. Ectopic bone formation was analyzed by μCT and skeletal preparation. The Cre recombinase or GFP adenovirus (˜10^10 pfu/ml) was diluted 1:2000 to infect cells in vitro. Four hours later, fresh medium was added and 24 hours later, the medium was changed.

[1] = test system: WT mice with Achilles tendon puncture (ATP); assay: Achilles tendon puncture (ATP) injury-induced HO mouse model, μCT; assay type: in vivo; conditions: for HO formation (ectopic bone volume): from the day of ATP, vs vehicle
Excerpt: For ATP mouse model, 4-week-old male mice were anesthetized. A 27-gauge needle was punctured into the Achilles tendon body from the lateral aspect percutaneously and this process was repeated six times at different parts of Achilles tendon body for each mouse. For sham operation, the needle was punctured through the skin without touching the Achilles tendons.
(§3) Mice were fixed overnight in 4% PFA and transferred to 70% ethanol, then analyzed by high-resolution μCT using a deskop μCT (Scanco Medical) according to recommended guidelines. The scanner was set at a voltage of 55 kV and a resolution of 12.3 μm per pixel. The images were reconstructed, analyzed for HO bone volume and endogenous bone mass. Briefly cortical bone parameters and cancellous bone microarchitecture from tibia were determined using a 7-μm isotropic voxel size. For ectopic bone, bone volume was measured. For cancellous bone, bone volume fraction (bone volume per tissue volume [BV/TV]) (percentage), trabecular number (Tb.N) (per millimeter), trabecular thickness (Tb.Th) (millimeter), trabecular separation (Tb.Sp) (millimeter) was analyzed. For cortical bone, cortical area fraction (Ct. BV/TV) (percentage), cortical bone density (Ct. BMD) (mgHA/cm3) were evaluated.

[2] = test system: Gnas^f/f mice after Ad-Cre injection (POH mouse model); assay: POH mouse model: Gnas^f/f mice with subcutaneous Ad-Cre injection, ectopic and endogenous bone by μCT
Shh protein = Shh protein levels by Western blotting in Gnas^f/f SMPs after Ad-Cre infection; assay type: cell-based, mouse; conditions: 200 ng/ml for 7 days after Ad-Cre infection (FIG. 4B)
Procedure: as §2
Tissue or cell lysates were prepared using a lysis buffer [20 mM Tris (pH 7.4), 150 mM NaCl, 1% Tri-ton X-100, 1 mM EDTA, 1 mM EGTA, 2.5 mM sodium pyrophosphate, 1 mM β-glycerophosphate, 1 mM sodium orthovanadate] or RIPA buffer (Santa Cruz Biotechnology), respectively, containing protease inhibitor mixture (Roche). Total cell lysates were analyzed by Western blotting according to standard procedures.

ACVR1^Q207D/+ SMPs = ACVR1^Q207D/+ SMPs with Ad-Cre infection: ALP activity and QRT-PCR; assay type: cell-based, mouse; conditions: VP 200 ng/ml for 7 days
Procedure: as §1
The skin was removed from the hindlimb covering the tibia and the subcutaneous tissue area (5 mm (1)×5 mm (w)×4 mm (h)) where the Ad-Cre were locally injected was isolated. Subcutaneous connective tissue and some muscle cells surrounding the ectopic bone would have been included. Total RNA was isolated first with Trizol (Invitrogen). […] PCR product accumulation was detected using Sybr green (Invitrogen; Platinum SYBR Green qPCR SuperMix-UDG). […]

[3] = test system: ACVR1^R206H; ScxCre mice (FOP model); assay: FOP mouse model ScxCre; ACVR1^R206H, HO volume by μCT; assay type: in vivo; conditions: VP 4 mg/kg/d IP, 5 days per week, starting at 6 weeks of age for 8 weeks
Procedure: The ACVR1^FlExR206H mice conditionally express ACVR1^R206H/+ knock-in alleles, were kindly provided by Dr. Aris Economides (Regeneron Pharmaceuticals, Inc.), mated with ScxCre mice, to yield ScxCre; ACVR1^FlEx206H/+ mice, which represent a FOP mouse model that develops spontaneous HO of tendons, ligaments, and joints. These mice were treated with Verteporfin (VP) (4 mg/kg/d intraperitoneal (IP) injection, 5 days per week) or an equal volume of PBS for 8 weeks, starting at 6 weeks of age. […]
as §3, with “The scanner was set at a voltage of 55 kV and a resolution of 12.3 μm per pixel.” left out

[4] = Gnas^-/- SMP cells cultured with the inhibitors for 7 days (FIG. 11G)

CN(C)C/C=C/C(=O)Nc1ccc(C(=O)Nc2cccc(Nc3ncc(Cl)c(-c4c[nH]c5ccccc45)n3)c2)cc1 [THZ1]
osteoblast differentiation (ALP) (Gnas^-/- SMP cells; [4]): reduced | HO formation (ectopic bone volume) ([1]; THZ1 (1 mM) applied on the skin of the trauma area): completely blocked | HO (ectopic bone volume, μCT) ([2]; THZ1 10 mg/kg IP injection 5 days a week after Ad-Cre injection): reduced HO

Verteporfin [VP]
osteoblast differentiation (ALP) (Gnas^-/- SMP cells; 200 ng/ml for 7 days after Ad-Cre infection (FIG. 4A)): decreased | osteoblast differentiation (ALP) (Gnas^-/- SMP cells; [4]): reduced | Shh protein levels (Shh protein): decreased | osteoblast differentiation (ALP) (ACVR1^Q207D/+ SMPs): reduced | expression of Yap and Hh target genes, Shh and Ihh (ACVR1^Q207D/+ SMPs; QRT-PCR): reduced | tendon, ligament, and intra-articular HO (HO volume) [3]: significantly reduced | endogenous bone mass (tibia bones) ([1]; VP IP 2.5 mg/kg 5 days per week, VP treated vs control): no significant difference | HO formation (ectopic bone volume) ([1]; VP higher dose 200 μg/ml applied on the skin of the trauma area): completely blocked | HO formation (ectopic bone volume) ([1]; VP low dose 20 μg/ml applied on the skin of the trauma area): reduced | endogenous bone mass ([2]; 3 months of non-stop VP treatment (IP 2.5 mg/kg)): not reduced | endogenous tibia bone mass ([2]; 6 weeks after VP IP injection (2.5 mg/kg, 5 days per week), treated vs untreated): no significant change | HO after VP withdrawal ([2]; VP IP 2.5 mg/kg for 6 weeks from Ad-Cre injection, then no treatment, harvested 3 months after Ad-Cre): significantly reduced | already formed HO (ectopic bone volume) ([2]; VP IP 2.5 mg/kg started 6 weeks after Ad-Cre injection, 5 times per week for 6 weeks, vs untreated): obviously reduced | HO (ectopic bone volume, μCT) ([2]; VP IP injection (2.5 mg/kg) 5 days a week for 6 weeks, immediately after Ad-Cre injection): more effective HO blockage | HO (ectopic bone volume, μCT) ([2]; VP topically applied (0.2 mg/ml; 200 μg/ml) 5 days per week for 6 weeks, immediately after Ad-Cre injection): HO reduction

CC(C)c1cnn2c(NCc3ccccc3)cc(NC[C@H]3CCNC[C@@H]3O)nc12 [CT7001]
osteoblast differentiation (ALP) (Gnas^-/- SMP cells; [4]): reduced | HO (ectopic bone volume, μCT) ([2]; CT7001 10 mg/kg gavage every other day after Ad-Cre injection): reduced HO
